# Test results reported in ChEMBL document CHEMBL6092220 (J Med Chem, 2024).
# pIC50: −log10 of the molar value. Active and inactive are the calls of the source. The calls are words filed in the database; no cut-off is given here.
# How the values were obtained:
# [1] = target: Cytochrome P450 2B6 (Homo sapiens, UniProt P20813); experiment: Inhibition of CYP2B6 (unknown origin); assay type: ADME
# [2] = Drug concentration in female CB17 SCID mouse plasma at 5 mg/kg, iv measured at 3 hrs by LC-MS/MS analysis; assay type: ADME, organism-based
# [3] = target: T1, Protein cereblon/Signal transducer and activator of transcription 3 (Mus musculus) (UniProt P42227+Q8C7D2); experiment: In-vivo PROTAC activity at STAT3/CRBN in female CB17 SCID mouse assessed as STAT3 depletion liver at 5 mg/kg, iv measured at 1 hr by immunobloting analysis; assay type: functional, organism-based
# [4] = target: Cytochrome P450 2C9 (Homo sapiens, UniProt P11712); experiment: Inhibition of CYP2C9 (unknown origin); assay type: ADME
# [5] = Drug concentration in female CB17 SCID mouse tumor at 5 mg/kg, iv measured at 24 hrs by LC-MS/MS analysis; assay type: ADME, organism-based, Neoplasm; conditions: read-out: Ct
# [6] = target: T2, Protein cereblon/Signal transducer and activator of transcription 3 (Homo sapiens, UniProt P40763+Q96SW2); experiment: PROTAC activity at his-SUMO-tagged STAT3 (127 to 688 residues)/CRBN in human SU-DHL-1 cells assessed as reduction in STAT3 level incubated for 20 hrs by Western blot analysis; assay type: cell-based
# [7] = target: T1, Protein cereblon/Signal transducer and activator of transcription 3 (Mus musculus); experiment: In-vivo PROTAC activity at STAT3/CRBN in female CB17 SCID mouse assessed as reduction in STAT3 level spleen at 5 mg/kg, iv measured at 72 hrs by immunobloting analysis; assay type: functional, organism-based; parameters: scale not given: the % may be the effect or the level left
# [8] = target: T2, Protein cereblon/Signal transducer and activator of transcription 3; experiment: PROTAC activity at STAT3/CRBN in human MOLM16 cells assessed as reduction in STAT3 level at 64 nM incubated for 4 hrs by Western blot analysis; assay type: cell-based
# [9] = target: Protein cereblon/Signal transducer and activator of transcription 2 (Homo sapiens) (UniProt Q96SW2+P52630); experiment: PROTAC activity at STAT2/CRBN in human Pfeiffer cells transfected with STAT3 K658R mutant assessed as reduction in STAT2 level upto 40 uM incubated for 20 hrs by Western blot analysis; assay type: cell-based
# [10] = Drug concentration in female CB17 SCID mouse liver at 5 mg/kg, iv measured at 1 hr by LC-MS/MS analysis; assay type: ADME, organism-based; conditions: read-out: Ct
# [11] = organism: Homo sapiens; experiment: Binding affinity to STAT5 (unknown origin) assessed as maximum inhibition by FP assay relative to control
# [12] = target: Protein cereblon/Signal transducer and activator of transcription 6 (Homo sapiens) (UniProt P42226+Q96SW2); experiment: PROTAC activity at STAT6/CRBN in human Pfeiffer cells transfected with STAT3 K658R mutant assessed as reduction in STAT6 level upto 40 uM incubated for 20 hrs by Western blot analysis; assay type: cell-based
# [13] = Apparent volume of distribution in Sprague-Dawley rat at 5 mg/kg, iv; assay type: ADME, organism-based; conditions: in vivo, read-out: Vz
# [14] = Drug concentration in female CB17 SCID mouse tumor at 5 mg/kg, iv measured at 72 hrs by LC-MS/MS analysis; assay type: ADME, organism-based, Neoplasm; conditions: read-out: Ct
# [15] = target: Protein cereblon/Signal transducer and activator of transcription 5A (Homo sapiens) (UniProt P42229+Q96SW2); experiment: PROTAC activity at STAT5A/CRBN in human PBMC cells assessed as reduction in STAT5A level upto 40 uM incubated for 20 hrs by Western blot analysis; assay type: cell-based
# [16] = Stability in rat Hepatocyte assessed as half life; assay type: ADME, cell-based; conditions: hepatocytes
# [17] = Clearance in ICR mouse at 5 mg/kg, iv; assay type: ADME, organism-based; conditions: in vivo
# [18] = Stability in human plasma assessed as parent compound remaining at […]; assay type: ADME, cell-free; conditions: read-out: Stability
# [19] = target: T2, Protein cereblon/Signal transducer and activator of transcription 3; experiment: PROTAC activity at his-SUMO-tagged STAT3 (127 to 688 residues)/CRBN in human SU-DHL-1 cells assessed as reduction in STAT3 level upto 40 uM incubated for 20 hrs by Western blot analysis relative to control; assay type: cell-based; parameters: scale not given: the % may be the effect or the level left
# [20] = Drug concentration in female CB17 SCID mouse tumor at 5 mg/kg, iv measured at 48 hrs by LC-MS/MS analysis; assay type: ADME, organism-based, Neoplasm; conditions: read-out: Ct
# [21] = Toxicity in iv dosed mouse assessed as weight gain; assay type: organism-based; conditions: in vivo, dose 5-20 mg/kg
# [22] = target: T2, Protein cereblon/Signal transducer and activator of transcription 3; experiment: PROTAC activity at his-SUMO-tagged STAT3 (127 to 688 residues)/CRBN in human SU-DHL-1 cells assessed as reduction in STAT3 level at 0.1 to 4000 nM incubated for 20 hrs by Western blot analysis relative to control; assay type: cell-based; conditions: dose 0.1-4000 nM
# [23] = Drug concentration in female CB17 SCID mouse spleen at 5 mg/kg, iv measured at 1 hr by LC-MS/MS analysis; assay type: ADME, organism-based; conditions: read-out: Ct
# [24] = target: Cytochrome P450 2C19 (Homo sapiens, UniProt P33261); experiment: Inhibition of CYP2C19 (unknown origin); assay type: ADME
# [25] = Drug concentration in female CB17 SCID mouse tumor at 5 mg/kg, iv measured at 1 hr by LC-MS/MS analysis; assay type: ADME, organism-based, Neoplasm; conditions: read-out: Ct
# [26] = Half life in Sprague-Dawley rat at 5 mg/kg, iv; assay type: ADME, organism-based; conditions: in vivo
# [27] = target: Protein cereblon/Signal transducer and activator of transcription 4 (Homo sapiens, UniProt Q96SW2+Q14765); experiment: PROTAC activity at STAT4/CRBN in human Pfeiffer cells transfected with STAT3 K658R mutant assessed as reduction in STAT4 level upto 40 uM incubated for 20 hrs by Western blot analysis; assay type: cell-based
# [28] = target: Cytochrome P450 2D6 (Homo sapiens, UniProt P10635); experiment: Inhibition of CYP2D6 (unknown origin); assay type: ADME
# [29] = target: Protein cereblon/Signal transducer and activator of transcription 1-alpha/beta (Homo sapiens, UniProt P42224+Q96SW2); experiment: PROTAC activity at STAT1/CRBN in human MOLM16 cells assessed as reduction in STAT1 level at > 8 uM incubated for 4 hrs by Western blot analysis; assay type: cell-based
# [30] = target: T1, Protein cereblon/Signal transducer and activator of transcription 3 (Mus musculus); experiment: In-vivo PROTAC activity at STAT3/CRBN in female CB17 SCID mouse assessed as reduction STAT3 level spleen at 10 mg/kg, iv measured at 48 hrs by Western blot analysis; assay type: functional, organism-based; parameters: scale not given: the % may be the effect or the level left
# [31] = Antitumor activity against human MOLM16 cells xenografted in mouse assessed as tumor regression at 25 mg/kg, iv administered twice daily; assay type: functional, MOLM-16
# [32] = Stability in Non human primate Hepatocyte assessed as half life; assay type: ADME, cell-based; conditions: hepatocytes
# [33] = Apparent volume of distribution in ICR mouse at 5 mg/kg, iv; assay type: ADME, organism-based; conditions: in vivo, read-out: Vz
# [34] = Stability in Non human primate plasma assessed as half life; assay type: ADME, cell-free
# [35] = Drug concentration in female CB17 SCID mouse plasma at 5 mg/kg, iv measured at 72 hrs by LC-MS/MS analysis; assay type: ADME, organism-based
# [36] = target: Protein cereblon/Signal transducer and activator of transcription 5B (Homo sapiens) (UniProt P51692+Q96SW2); experiment: PROTAC activity at STAT5B/CRBN in human PBMC cells assessed as reduction in STAT5B level upto 40 uM incubated for 20 hrs by Western blot analysis; assay type: cell-based
structure (smiles),measurement,setting,value
COC(=O)N1CC[C@H]2CC[C@@H](C(=O)N[C@@H](CCC(N)=O)C(=O)N[C@@H](Cc3ccc(F)c(F)c3)C(=O)N3CCC(CCC#Cc4cccc5c4CN(C4CCC(=O)NC4=O)C5=O)CC3)N2C(=O)[C@@H](NC(=O)c2cc3cc(C(F)(F)P(=O)(O)O)ccc3s2)C1 (stereo partly specified),pIC50,[1],< 5.00
same,concentration at 3 h,[2],31200 ng/mL
same,Activity,[3],> 70%
same,pIC50,[4],< 5.00
same,concentration at 24 h,[5],1800 ng/g
same,DC50,[6],10 nM
same,Activity,[7],> 90%
same,Activity,[8],Active
same,Activity,[9],inactive
same,concentration at 1 h,[10],5850 ng/g
same,Imax,[11],50%
same,Activity,[12],inactive
same,Vd,[13],0.12 L/kg
same,concentration at 72 h,[14],925 ng/g
same,Activity,[15],inactive
same,t1/2,[16],> 120 min
same,clearance,[17],3.06 mL/h/kg
same,remaining at 2 h,[18],75%
same,Activity,[19],> 95%
same,concentration at 48 h,[20],1110 ng/g
same,Activity,[21],Non-toxic
same,Emax,[22],> 95%
same,concentration at 1 h,[23],2870 ng/g
same,pIC50,[24],< 5.00
same,concentration at 1 h,[25],4810 ng/g
same,half-life,[26],60 min
same,Activity,[27],inactive
same,pIC50,[28],< 5.00
same,Activity,[29],Active
same,Activity,[30],> 90%
same,Activity,[31],100%
same,half-life,[32],> 120 min
same,Vd,[33],0.1 L/kg
same,half-life,[34],> 120 min
same,concentration at 72 h,[35],8430 ng/mL
same,Activity,[36],inactive
